Measurements reported in patent US12268692B2, “Combinatorial targeted therapy methods” (Postsurgical Therapeutics, Inc., priority 2020, dated 2025).

Columns and labels:
[1] = cited from earlier work
[2] = In vitro release study of sorafenib and everolimus PLGA microspheres (sample-and-separate method, HPLC); settings: during in vitro release study
Method: The in vitro release study was carried out by sample-and-separate method. Briefly, 5 mg of microsphere sample (n=3) was taken into 100 mL flask and dispersed in 50 mL of release medium (0.5% Tween 20 and 0.1% sodium azide in phosphate-buffered saline (PBS at pH 7.4)). The flasks were placed in orbital agitating incubator at 37° C. and shacked at 100 rpm. At certain time points, 40 mL medium was taken and centrifuged at 3000 rpm for 2 min. From the supernatant, 30 mL was pipetted and replaced by same amount of the fresh media. In the collected supernatant, the content of the released SOF or EVE was analyzed by high performance liquid chromatography (HPLC).

[3] = system: AGS cells; test: In vitro cytotoxicity study, XTT assay; format: cell-based, human
Method: AGS cells (2×10^4 cells/well) were seeded in a 12-well plates (Corning, Millipore Sigma) with 1 mL of RPMI-1640 medium containing 10% FBS (Fetal Bovine Serum) and incubated for 1 day at 37° C. in a humidified incubator containing 5% CO2. AGS cells were allowed to proliferate for tests of in vitro antitumor activity. In triplicate wells, Group 1 (PBS), Group 2 (ISG formulation without everolimus or trametinib), Group 3 (ISG formulation with 90 μg of everolimus), Group 4 (ISG formulation with 90 μg of trametinib) and Group 5 (ISG formulation with 90 μg of everolimus and 90 μg of tramethinib), Group 6 (cell culture media without AGS cells) and Group 7 (10% ethanol in cell culture media) were added directly into chambers of the 12 well plate to examine the in vitro antitumor activity of these solutions against AGS cancer cells. […]
(§1) Briefly, 100 μL of PBS solution containing the XTT substrate (50 mg/mL) was added to each 12-well plate and the plates were incubated at 37° C. for 4 h. […] The solution of each well was transferred to a 96-well plate (triplicate for wells 1 and 2 and duplicate for well 3) and read using a microplate reader (Bio-teck XLS800; Bio-Tek Instruments City of Industry, CA). The optical density of the formazan product of each well was measured at a wavelength of 450 nm and a reference wavelength of 630 nm. […]

[4] = system: MIA PaCa-2 pancreatic cell line; test: In vitro cytotoxicity study, XTT assay; format: cell-based, human; settings: MIA PaCa-2 cells
Method: (§2) AGS cells (2×10^4 cells/well) were seeded in a 12-well plates (Corning, Millipore Sigma) with 1 mL of RPMI-1640 medium containing 10% FBS (Fetal Bovine Serum) and incubated for 1 day at 37° C. in a humidified incubator containing 5% CO2. AGS cells were allowed to proliferate for tests of in vitro antitumor activity. In triplicate wells, Group 1 (PBS), Group 2 (ISG formulation without everolimus or trametinib), Group 3 (ISG formulation with 90 μg of everolimus), Group 4 (ISG formulation with 90 μg of trametinib) and Group 5 (ISG formulation with 90 μg of everolimus and 90 μg of tramethinib), Group 6 (cell culture media without AGS cells) and Group 7 (10% ethanol in cell culture media) were added directly into chambers of the 12 well plate to examine the in vitro antitumor activity of these solutions against AGS cancer cells.
(§3) Each 12 well plate chamber was seeded with AGS cells (2×10^4 cells/well). The 12 well plates were maintained at 37° C. in a humidified incubator containing 5% CO2 for 48 hours prior to dosing. To create a drug depot at dosing time, 2 μL of each of the ISG everolimus formulation (90 μg everolimus/well), the ISG trametinib formulation (90 μg trametinib/well) and ISG everolimus-trametinib (90 μg everolimus+90 μg trametinib) formulations were added directly into the media of each corresponding plate well and maintained at 37° C. in a humidified incubator for the duration of the experiment. […]
as §1

[5] = system: NCI H441 lung cell line; test: In vitro cytotoxicity study, XTT assay; format: cell-based, human; settings: NCI H441 cells
Method: as §2, §3, §1

[6] = system: SW403 colorectal cell line; test: In vitro cytotoxicity study, XTT assay; format: cell-based, human; settings: SW403 cells
Method: as §2, §3, §1

| SMILES | stability of EVE as free form in aqueous solution [1] | stability of EVE inside the microsphere [2] | in vitro cytotoxicity (XTT), ethanol treatment alone ([3]; 10% ethanol in cell culture media, 72 h time point) | in vitro cytotoxicity (XTT) ([3]; 24 and 72 h of exposure) | in vitro cytotoxicity (XTT) [4] | in vitro cytotoxicity (XTT) [5] | in vitro cytotoxicity (XTT) [6] |
| --- | --- | --- | --- | --- | --- | --- | --- |
| CO[C@H]1C[C@@H]2CC[C@@H](C)[C@@](O)(O2)C(=O)C(=O)N2CCCC[C@H]2C(=O)O[C@H]([C@H](C)C[C@@H]2CC[C@@H](OCCO)[C@H](OC)C2)CC(=O)[C@H](C)/C=C(\C)[C@@H](O)[C@@H](OC)C(=O)[C@H](C)C[C@H](C)/C=C/C=C/C=C/1C [EVE, everolimus] | degrade quickly in aqueous solution as free form | stable inside the microsphere | – | – | – | – | – |
| CCO [ethanol] | – | – | complete ablation and cytotoxicity of the cancer cells | ablation with a complete cytotoxic effect on the cancer cells | ablation with a complete cytotoxic effect on the cancer cells | ablation with a complete cytotoxic effect on the cancer cells | ablation with a complete cytotoxic effect on the cancer cells |
